# The source made the active and inactive calls.
# Tests used:
# [1] = target: Luciferin 4-monooxygenase (Photinus pyralis, UniProt P08659); assay: inhibition of purified Photinus pyralis luciferase – biochemical, luminescence, dose response (AID 1891)
# [2] = Luminescence Cell-Based Dose Confirmation HTS to Identify Inhibitors of Platelet Dense Granule Release. [Related pubchem assays: 1663 (Primary HTS), 1678 (Summary of Project)]; assay type: functional
# [3] = target: E3 ubiquitin-protein ligase Mdm2 (Homo sapiens, UniProt Q00987); assay: MDM2-luc reporter signal enhancers, multi-concentration potency testing, MDM2 ubiquitin-protein ligase inhibitor program, whole-cell format, luminescence detection, 384-well microplate (AID 1394); assay type: functional;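 further: MDM2 E3 inhibitors raise luminescence so EC50 is for signal enhancement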
# E3 ubiquitin-protein ligase Mdm2, sequence (Q00987 whole entry): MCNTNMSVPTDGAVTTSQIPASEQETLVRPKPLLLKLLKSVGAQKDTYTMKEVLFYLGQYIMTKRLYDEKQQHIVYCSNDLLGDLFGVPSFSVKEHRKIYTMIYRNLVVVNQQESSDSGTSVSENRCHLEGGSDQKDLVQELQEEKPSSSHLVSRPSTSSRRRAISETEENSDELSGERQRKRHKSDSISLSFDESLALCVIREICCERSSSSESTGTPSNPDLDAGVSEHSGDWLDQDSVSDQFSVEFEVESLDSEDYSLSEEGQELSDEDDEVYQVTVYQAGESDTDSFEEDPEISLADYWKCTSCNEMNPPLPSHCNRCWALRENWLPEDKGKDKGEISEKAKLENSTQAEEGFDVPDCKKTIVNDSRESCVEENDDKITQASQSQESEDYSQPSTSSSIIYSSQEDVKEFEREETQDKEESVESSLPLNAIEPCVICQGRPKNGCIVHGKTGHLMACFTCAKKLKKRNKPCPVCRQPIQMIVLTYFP
# [4] = target: Sphingosine 1-phosphate receptor 2 (Homo sapiens, UniProt O95136); assay: Dose Response Cell Based Assay for Antagonists of the S1P2 Receptor. [Related pubchem assays: 856, 736 ]; assay type: functional
# Sphingosine 1-phosphate receptor 2, sequence (O95136 whole entry): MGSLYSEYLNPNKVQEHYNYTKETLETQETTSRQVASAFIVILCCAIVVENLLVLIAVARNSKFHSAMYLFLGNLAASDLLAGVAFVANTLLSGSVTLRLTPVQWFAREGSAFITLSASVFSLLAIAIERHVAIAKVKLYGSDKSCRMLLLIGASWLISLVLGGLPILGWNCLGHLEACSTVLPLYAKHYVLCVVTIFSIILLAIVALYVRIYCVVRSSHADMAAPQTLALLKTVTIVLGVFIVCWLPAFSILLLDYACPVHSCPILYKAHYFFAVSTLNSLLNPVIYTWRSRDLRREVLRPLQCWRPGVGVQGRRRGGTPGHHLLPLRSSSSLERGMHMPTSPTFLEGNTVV
# [5] = Dd2 parasite growth inhibition in erythrocytes – SYBR Green, dry powder samples, set 9, dose response (AID 1159568); assay type: functional, cell-based
# [6] = Luminescence Cell-Based Dose Retest to Confirm Inhibitors of Cancer Stem Cells. [Related pubchem assays (depositor defined):AID2717, AID2721]; assay type: functional, Homo sapiens; conditions: Homo sapiens
# [7] = IC50 of insulin release inhibition, rat insulinoma INS-1E line, 5 mM glucose, cell-based (AID 1117331); assay type: functional
# [8] = glucagon-like peptide-1 release potency in STC-1, concentration-response, half-maximal inhibitory concentration in the STC-1 line (AID 1117345); assay type: functional, cell-based
# [9] = Potency on glucagon-like peptide 1 release, dose-response in NCI-H716 cell line, half maximal inhibitory concentration (AID 1117344); assay type: functional, cell-based
# [10] = target: T1, Oxysterols receptor LXR-beta (Homo sapiens, UniProt P55055); assay: LXR agonists, Gal4 luciferase reporter, dose response, counter-screen for ssDAF-12 agonist project, cell-based, luminescence, HEK293, S. stercoralis campaign (AID 720737); assay type: functional; conditions: read-out: IC50 (the source's name)
# T1 sequence (P55055 whole entry): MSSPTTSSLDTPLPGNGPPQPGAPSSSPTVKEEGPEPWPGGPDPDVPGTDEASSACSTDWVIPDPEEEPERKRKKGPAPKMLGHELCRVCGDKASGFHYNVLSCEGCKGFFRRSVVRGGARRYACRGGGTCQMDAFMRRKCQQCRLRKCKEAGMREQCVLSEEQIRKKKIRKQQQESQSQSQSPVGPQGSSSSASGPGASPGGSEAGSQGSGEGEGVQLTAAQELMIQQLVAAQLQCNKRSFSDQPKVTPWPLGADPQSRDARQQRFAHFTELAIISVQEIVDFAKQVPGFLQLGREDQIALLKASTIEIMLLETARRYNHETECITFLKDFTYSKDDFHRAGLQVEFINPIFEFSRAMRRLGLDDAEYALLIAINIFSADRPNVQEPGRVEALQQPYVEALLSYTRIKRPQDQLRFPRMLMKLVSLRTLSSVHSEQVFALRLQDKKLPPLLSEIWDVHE
# [11] = Luminescence-based cell-based high throughput dose response assay to identify activators of the DAF-12 from the parasite S. stercoralis (ssDAF-12).; assay type: functional
# Bcl-2-related protein A1 [12] = target: T2, Bcl-2-related protein A1 (Mus musculus, UniProt Q07440); assay: Bfl-1 binding inhibitors, SAR follow-up, biochemical, fluorescence polarization (AID 1070)
# T2 sequence (Q07440 whole entry): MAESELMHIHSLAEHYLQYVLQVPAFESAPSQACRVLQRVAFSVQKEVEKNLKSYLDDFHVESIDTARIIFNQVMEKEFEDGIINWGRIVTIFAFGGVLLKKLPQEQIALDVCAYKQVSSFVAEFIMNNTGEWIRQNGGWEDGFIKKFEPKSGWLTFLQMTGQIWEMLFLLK
# Bcl-2-related protein A1 [13] = target: T2, Bcl-2-related protein A1; assay: small-molecule antagonists of Bfl-1/BH3 interaction – biochemical, TR-FRET, mouse Bfl-1, confirmation (AID 621);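 further: TR-FRET binding of GST-Bfl-1 to FITC-labelled Bid peptide via terbium antibody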
# [14] = target: Glyceraldehyde-3-phosphate dehydrogenase (Homo sapiens, UniProt P04406)
# Glyceraldehyde-3-phosphate dehydrogenase, sequence (P04406 whole entry): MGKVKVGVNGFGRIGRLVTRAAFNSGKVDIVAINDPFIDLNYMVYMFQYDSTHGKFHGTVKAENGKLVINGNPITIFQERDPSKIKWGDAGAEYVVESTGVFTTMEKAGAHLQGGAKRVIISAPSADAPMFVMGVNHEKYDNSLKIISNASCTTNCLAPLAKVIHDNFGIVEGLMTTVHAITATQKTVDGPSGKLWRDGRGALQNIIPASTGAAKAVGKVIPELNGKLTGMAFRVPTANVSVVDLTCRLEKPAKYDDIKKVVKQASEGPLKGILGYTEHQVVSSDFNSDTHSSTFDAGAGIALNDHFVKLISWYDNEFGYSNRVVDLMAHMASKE
# Luciferin 4-monooxygenase, sequence (P08659 whole entry): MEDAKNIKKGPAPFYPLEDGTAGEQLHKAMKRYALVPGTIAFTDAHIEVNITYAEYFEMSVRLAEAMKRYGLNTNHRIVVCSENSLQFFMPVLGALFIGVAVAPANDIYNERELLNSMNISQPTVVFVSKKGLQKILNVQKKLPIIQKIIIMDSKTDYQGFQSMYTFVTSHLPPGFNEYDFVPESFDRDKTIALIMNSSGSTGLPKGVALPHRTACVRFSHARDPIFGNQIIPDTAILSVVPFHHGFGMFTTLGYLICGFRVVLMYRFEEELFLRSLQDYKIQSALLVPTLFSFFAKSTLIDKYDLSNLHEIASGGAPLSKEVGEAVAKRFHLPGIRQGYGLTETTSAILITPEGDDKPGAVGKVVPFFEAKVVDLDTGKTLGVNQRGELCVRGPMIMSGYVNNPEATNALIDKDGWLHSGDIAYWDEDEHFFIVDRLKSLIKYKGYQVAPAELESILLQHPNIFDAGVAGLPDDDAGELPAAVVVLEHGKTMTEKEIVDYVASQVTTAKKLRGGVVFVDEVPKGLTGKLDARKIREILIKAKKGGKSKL
smiles,measurement,setting,value
Cc1nnc(SCCN2CCOCC2)c2nn(-c3ccccc3F)c(C)c12,EC50,[1],> 112 µM (not active)
same,EC50,[2],> 112 µM (not active)
same,EC50,[3],2.43 µM (not active)
O=C(Nc1ccc(F)cc1)c1cccs1,IC50,[4],> 30 µM (not active)
O=C(C1CCOCC1)N1C[C@@H]2[C@H](c3ccccc31)[C@H](CO)N2C(=O)Cc1ccccn1,AC50,[5],22.9 µM (active)
O=C1Nc2ccc(Cl)cc2[C@@](C#CC2CC2)(C(F)(F)F)O1 [EFAVIRENZ],AC50,[6],6.38 µM (active)
same,IC50,[7],3.87 µM (active)
same,IC50,[8],2.48 µM (active)
same,IC50,[9],21.2 µM (inactive)
CC(=O)NC1(c2ccccc2)CCN(c2cc(C)nc(-c3ccccc3)n2)CC1,EC50,[10],> 67.5 µM (inactive)
same,IC50,[11],> 67.5 µM (inactive)
Cc1cccc(N2CCN(C3=C(Cl)C(=O)N(c4ccc(Cl)c(Cl)c4)C3=O)CC2)c1C,IC50,Bcl-2-related protein A1 [12],> 100 µM (not active)
same,IC50,Bcl-2-related protein A1 [13],> 100 µM (not active)
same,IC50,[14],> 100 µM (not active)

# — ChEMBL document CHEMBL1201862, “PubChem BioAssay data set” (2004)
